# According to US20170129911A1, “COMPLEXES COMPRISING A PLATINUM COMPOUND AND AN IMMUNE CHECKPOINT INHIBITOR AND RELATED METHODS” (Massachusetts Institute of Technology, priority 2015, published 2017):
# “Also recorded” adds a separate entry of the source.
# Assays:
# [1] = system: A2780/CP70 human ovarian cancer cells; assay: Cytotoxicity MTT assay, A2780/CP70; type: cell-based; conditions: cisplatin-sensitive and resistant ovarian cancer cell lines
# From the text: Ovarian carcinoma cells, NIH:OVCAR3, A2780, A2780/CP70, and SKOV3 were purchased from the American Type Culture Collection (ATCC, Rockville Md.). Peripheral blood mononuclear cells (PBMCs) of two different donors were obtained from Zen Bio Inc. (Research Triangle, NC). Cancer cell lines were maintained in Roswell Park Memorial Institute (RPMI) medium (glutamine-free supplemented with 10% fetal bovine serum, Atlanta Biologics, Atlanta Ga.) and 1% penicillin/streptomycin. PBMCs were thawed in specialized medium (10% […], 40% RPMI and 50% FBS) and subsequently cultured in RPMI containing 20% FBS. For T-cell proliferation experiments, PBMCs were stimulated by the addition of phytohemagglutinin (PHA-P). All cells were grown at 310 K in a humidified atmosphere containing 5% CO2. D-1-methyltryptophan, L-tryptophan and L-kynurenine were purchased from Sigma Aldrich.
# The colorimetric MTT assay was used to determine the toxicity of 1, 2, and cisplatin. Cells (2×10^3) were seeded in each well of a 96-well plate. […] Cisplatin was prepared as a 5 mM solution in PBS and diluted using media. 1, 2 and C16—Pt-Suc-NHC2H4OH were prepared as 10 mM solution in DMSO and diluted using media. The final volume amount of DMSO in each well was 0.5%, and which was present in the untreated control as well. Cells co-incubated with cisplatin and (D)-1-MT were first pre-treated with 1 mM (D)-1-MT. […] The RPMI/MTT, mixture was aspirated and 100 μL of DMSO was added to dissolve the resulting purple formazan crystals. The absorbance of the solution wells was read at 570 and 650 nm. Absorbance values were normalized to DMSO-containing control wells and plotted as concentration of test compound versus % cell viability. IC50 values were interpolated from the resulting dose dependent curves. The reported IC50 values are the average of at least three independent experiments, each of which consisted of six replicates per concentration level.
# human IDO in SKOV3 cells = assay: Immunoblotting and qRT-PCR of IDO expression in SKOV3 cells; type: cell-based; conditions: immunoblotting and qRT-PCR
# Method: Total RNA was isolated with the Qiagen RNAeasy RNA isolation kit (Hilden, Germany) and cDNA was synthesized with the Applied Biosystems reverse-transcription-kit (Foster City, Calif., USA). qRT-PCR was performed in a Light cycler 480 II thermo cycler with SYBR Green PCR Mastermix (Roche). All primers were separated by at least one intron on the genomic DNA to exclude its amplification. PCR reactions were checked by including no-RT controls, by omission of templates, and by melting curves. Standard curves were generated for each gene. Relative quantification of gene expression was determined by comparison of threshold values. All samples were analyzed in duplicate at two different dilutions. All results were normalized to GAPDH.
# Cells were washed with PBS, scraped into SDS-PAGE loading buffer (64 mM Tris-HCl (pH 6.8)/9.6% glycerol/2% SDS/5% β-mercaptoethanol/0.01% Bromophenol Blue), and incubated at 95° C. for 10 min. […] Membranes were blocked in 5% (w/v) bovine serum albumin in PBST (PBS/0.1% Tween 20) and incubated with the appropriate primary antibodies (Cell Signalling Technology and Santa Cruz). After incubation with horseradish peroxidase-conjugated secondary antibodies (Cell Signalling Technology), 1:1000, immuno complexes were detected with the ECL detection reagent (BioRad) and analyzed using UVP biospectrum imaging system fitted with a chemiluminescence filter.
# [2] = Whole human blood stability test; type: in vitro ADME
# Method: To a volume of 0.8 mL fresh whole human blood (Innovative Research, Novi, Mich.) was added 24 μL of a DMSO solution of 2 (2.0 mM), resulting in a final concentration of 60 μM. After 5 sec of vortexing, a 100 μL aliquot of the blood sample (0 h time point) was immediately transferred to a new tube containing 300 μL of octanol, and the remaining […] of blood was incubated at 37° C. with rotation (1100 rpm). The blood-octanol mixture was vortexed for 2 min at R.T. and then centrifuged to separate the phases. The isolated octanol extract was diluted with methanol for GFAAS measurement. At varying time points (1 h, 2 h, 3 h, 5 h, and 7 h), a 100 μL aliquot was removed from the incubating blood and extracted as described above. For the 7 h sample, analytical HPLC was employed to confirm the integrity of the Pt compound. A standard of 2 and an octanol extract from blank whole human blood were used for comparison.
# [3] = Tolerability/toxicity in mice; type: in vivo
# Solubility in PBS = type: physicochemical
# IDO = IDO (Homo sapiens, UniProt P14902); assay: Cellular determination of kynurenine by HPLC in medium of SKOV3 cells; conditions: 2 10 μM vs (D)-1-MT 1 mM
# Sequence of IDO (P14902 whole entry): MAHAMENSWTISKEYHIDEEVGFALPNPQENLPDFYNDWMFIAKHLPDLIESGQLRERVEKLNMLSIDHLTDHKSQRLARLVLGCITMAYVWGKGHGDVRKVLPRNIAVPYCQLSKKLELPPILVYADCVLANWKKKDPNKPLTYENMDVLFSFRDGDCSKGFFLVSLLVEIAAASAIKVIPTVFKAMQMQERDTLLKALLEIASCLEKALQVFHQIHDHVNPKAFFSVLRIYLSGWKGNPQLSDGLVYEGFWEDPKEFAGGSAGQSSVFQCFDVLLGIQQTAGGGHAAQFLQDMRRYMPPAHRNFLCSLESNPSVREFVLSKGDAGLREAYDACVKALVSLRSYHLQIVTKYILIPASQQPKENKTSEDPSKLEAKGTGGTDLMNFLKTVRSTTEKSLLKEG
# T-cells = assay: Mixed leukocyte reaction (T-cell proliferation), PBMC/SKOV3 coculture; type: cell-based, human; conditions: SKOV3/MLR coculture, 2 10 μM, 6 days, CFSE flow cytometry
# Method: To target a key component of the immunosuppression promoting IDO-AHR-IL6 loop, the immunomodulatory phenotype of 2 was investigated. A mixed leukocyte reaction (MLR) was carried out. In this experiment, suspended 2×10^5 peripheral blood mononuclear cells (PBMCs) stimulated with phytohemagglutinin (PHA-P), and 2×10^5 cells of PBMCs from unrelated healthy donors as responders stained with carboxyfluorescein succinimidyl ester (CFSE), a cell permeable fluorescent dye that binds amine residues (mostly lysines) covalently, through its succinimidyl ester group were cocultured with adherent SKOV-3 (2000 cells). After 6 days of culture, PBMCs were harvested by centrifugation of medium, stained with APC-anti CD3 and T-cell proliferation was assessed by flow cytometry. T-cells express CD3, a cell surface multimeric protein complex involved in T-cell development and activation.
# SKOV3 cells (2×10^3) were seeded in 6-well plates. […] The T-cell population of PBMCs was measured by FACS Calibur-HTS flow cytometer (BD Biosciences) after staining with APC-anti CD3 antibody. PHA-P stimulated PBMCs (2×10^5) and carboxyfluorescein succinimidyl ester (CFSE) stained PBMCs (2×10^5) from unrelated donors were added in co-cultures of SKOV3 tumor cells (treated and untreated) and incubated for six days at 37° C., the and CFSE signal analyzed by flow cytometry on days 1 and 6.
compound,measurement,setting,value
"CCCCCCCCCCCCCCCCNC(=O)[O][Pt]([NH2])([NH2])([Cl])([Cl])[O]C(=O)CCC(=O)NCCOC(=O)[C@H](N)Cc1cn(C)c2ccccc12 (mixture of isomers) [Compound 2, cis,cis,trans-[Pt(NH3)2Cl2(O2CC2H4OCNHC2H4O2C-D-1MT)(O2CNHC16H33)]]",cross-resistance with cisplatin,[1],no cross-resistance with cisplatin
same,IDO protein expression (IDO inhibition),human IDO in SKOV3 cells,effectively block IDO protein expression
same,half-life at 60 µM,"[2]; fresh whole human blood, whole human blood, 60 μM, 37° C., read-out: t1/2 in human blood (converted)",2.2 h
same,stability in blood,[2]; summary statement,stable in blood
same,toxicity / tolerance in mice,[3],low toxicity in mice; also recorded: mice are tolerant
same,solubility in PBS,Solubility in PBS,low solubility
same,block of kynurenine release in the medium in comparison to (D)-1-MT,IDO,by a factor of three
same,alloreactive T-cell proliferation,T-cells,enhancement of alloreactive T-cell proliferation
